In patent US20150038430A1, “THERAPEUTIC PEPTIDOMIMETIC MACROCYCLES” (AILERON Therapeutics, Inc., priority 2008, published 2015):
pEC50: −log10 of the molar value. Numbered stars: 1 amine (or outer) side, 2 acyl side, 3 side chain; on linkers, the order of the positions; unused ones are H or OH. Bridge positions count the residues as written; N and C are the ends. Square brackets hold non-standard residues; d marks the D form. Peptide text beside a SMILES is read from it. * marks the point of attachment. ξ: configuration not given here. ξαMeNle(6-ylidene) = CC(CCCC=[*:3])(N[*:1])C(=O)[*:2]; Nle = CCCC[C@H](N)C(=O)O; Aib = CC(C)(N)C(=O)O; Propionyl = CCC(=O)*

Key:
Type in all cases: cell-based, human
Settings in all cases: 24 h
A375 = tested on: A375
Description: (§1) Cell viability assays shown in FIGS. 34-52 were performed according to a similar protocol. Cells were split at optimal cell density a day prior to the initiation of the study. The next day, cells were washed twice in serum-free Opti-MEM media and 4000 cells/well were added to each well in a final volume of […] Opti-MEM. For serum-free experiments, macrocycles were diluted from 2 mM stocks (100% DMSO) in sterile water to prepare 400 μM working solutions. A 40 μM solution was then generated by ten-fold dilution in assay buffer. The macrocycle and controls were then serially diluted two-fold in assay buffer in dosing plates to provide concentrations between 1.2 and 40 μM, respectively. For experiments in 2% human serum, macrocycles were diluted from 10 mM stocks (100% DMSO) in sterile water to prepare 1 mM working solutions. A 100 μM solution was generated by ten-fold dilution in assay buffer. The macrocycles and controls were then serially diluted two-fold in assay buffer in dosing plates to provide concentrations between 3 and 100 μM, respectively. 50 μl of each dilution was then added to the appropriate wells of the test plate to achieve final concentrations of the macrocycle between 0.6 to 20 μM (for serum free experiment) or 1.5 to 50 μM (for 2% serum experiment), respectively. Controls included wells without macrocycles containing the same concentration of DMSO as the macrocycle-containing wells, wells containing 0.1% Triton X-100, and wells containing no cells. Plates were incubated for 24 hours at 37° C. in a humidified 5% CO2 atmosphere. At the end of a 24 hr incubation period, a CellTiter-Glo Luminescent Cell Viability Assay was performed according to manufacturer's instructions (Promega, catalog #G7571) and the luminescence was measured using a BIO-TEK synergy HT Plate reader. Values were plotted as percent viable, i.e. as a percentage of the negative control value (derived from cells exposed to DMSO only). All assays were performed in duplicate.
(§2) The following tables summarize the EC50 values (μM) observed with peptidomimetic macrocycles of the invention in various cell lines: […]

DHL-6 = tested on: DHL-6
Description: as §1, §2

Jurkat = tested on: Jurkat
Description: as §1, §2

MDA-MB231-Met = tested on: MDA-MB231-Met
Description: as §1, §2

MM1S = tested on: MM1S
Description: as §1, §2

Molt-4 = tested on: Molt-4
Description: as §1, §2

NCI-H82 (SCLC-MCL1+) = tested on: NCI-H82 (SCLC-MCL1+)
Description: as §1, §2

OVCAR8 = tested on: OVCAR8
Description: as §1, §2

PC3 = tested on: PC3
Description: as §1, §2

RS4;11 = tested on: RS4;11
Description: as §1, §2

Raji = tested on: Raji
Description: as §1, §2

SEMK2 = tested on: SEMK2
Description: as §1, §2

Row | SMILES | pEC50 (A375) | pEC50 (DHL-6) | pEC50 (Jurkat) | pEC50 (MDA-MB231-Met) | pEC50 (MM1S) | pEC50 (Molt-4) | pEC50 (NCI-H82 (SCLC-MCL1+)) | pEC50 (OVCAR8) | pEC50 (PC3) | pEC50 (RS4;11) | pEC50 (Raji) | pEC50 (SEMK2)
1 | CC[C@H](C)[C@H](NC(=O)[C@H](Cc1c[nH]c2ccccc12)NC(=O)[C@H](CCCNC(=N)N)NC(C)=O)C(=O)N[C@@H](C)C(=O)N[C@@H](CCC(N)=O)C(=O)N[C@@H](C)C(=O)N[C@@H](CC(C)C)C(=O)N[C@@H](CCCNC(=N)N)C(=O)NC1(C)CCCC=CCCCC(C)(C(=O)N[C@@H](Cc2ccccc2)C(=O)N[C@@H](CC(N)=O)C(=O)N[C@@H](C)C(=O)N[C@@H](Cc2ccc(O)cc2)C(=O)N[C@@H](Cc2ccc(O)cc2)C(=O)N[C@@H](C)C(=O)N[C@@H](CCCNC(=N)N)C(=O)N[C@@H](CCCNC(=N)N)C(N)=O)NC(=O)[C@H](CC(N)=O)NC(=O)CNC(=O)[C@H]([C@@H](C)CC)NC1=O (stereo partly drawn) [SP-23] (Ac-RWIAQALR[ξαMeNle(6-ylidene)]IGN[ξαMeNle(6-ylidene)]FNAYYARR-NH2; staple 9-13) | 6.00 | 6.30 | 6.05 | 6.22 | 6.15 | 6.22 | 6.22 | 6.05 | 5.70 | 6.00 | 5.74 | 6.00
2 | CC[C@H](C)[C@H](NC(C)=O)C(=O)N[C@@H](Cc1c[nH]c2ccccc12)C(=O)N[C@H](C(=O)N[C@@H](C)C(=O)N[C@@H](CCC(N)=O)C(=O)N[C@@H](C)C(=O)N[C@@H](C)C(=O)N[C@@H](CCCNC(=N)N)C(=O)NC1(C)CCCC=CCCCC(C)(C(=O)N[C@@H](C)C(=O)N[C@@H](CC(N)=O)C(=O)N[C@@H](C)C(=O)N[C@@H](Cc2ccc(O)cc2)C(=O)N[C@@H](Cc2ccc(O)cc2)C(=O)N[C@@H](C)C(=O)N[C@@H](CCCNC(=N)N)C(=O)N[C@@H](CCCNC(=N)N)C(N)=O)NC(=O)CNC(=O)[C@H]([C@@H](C)CC)NC(=O)[C@H](CC(=O)O)NC1=O)[C@@H](C)CC (stereo partly drawn) [SP-24] (Ac-IWIAQAAR[ξαMeNle(6-ylidene)]DIG[ξαMeNle(6-ylidene)]ANAYYARR-NH2; staple 9-13) | < 4.70 | – | < 4.70 | < 4.70 | – | – | < 4.70 | < 4.70 | < 4.70 | – | – | –
3 | CC[C@H](C)[C@H](NC(C)=O)C(=O)N[C@@H](Cc1c[nH]c2ccccc12)C(=O)N[C@H](C(=O)N[C@@H](C)C(=O)N[C@@H](CCC(N)=O)C(=O)N[C@@H](C)C(=O)N[C@@H](CC(C)C)C(=O)N[C@@H](CCCNC(=N)N)C(=O)NC1(C)CCCC=CCCCC(C)(C(=O)N[C@@H](Cc2ccccc2)C(=O)N[C@@H](CC(N)=O)C(=O)N[C@@H](C)C(=O)N[C@@H](Cc2ccc(O)cc2)C(=O)N[C@@H](Cc2ccc(O)cc2)C(=O)N[C@@H](C)C(=O)N[C@@H](CCCNC(=N)N)C(=O)N[C@@H](CCCNC(=N)N)C(N)=O)NC(=O)[C@H](CC(N)=O)NC(=O)CNC(=O)[C@H]([C@@H](C)CC)NC1=O)[C@@H](C)CC (stereo partly drawn) [SP-25] (Ac-IWIAQALR[ξαMeNle(6-ylidene)]IGN[ξαMeNle(6-ylidene)]FNAYYARR-NH2; staple 9-13) | 6.00 | 6.22 | 6.30 | 6.00 | 6.22 | 6.05 | 6.30 | 5.85 | 6.22 | 6.00 | 5.74 | 6.05
4 | CCCC[C@H](NC(=O)C1(C)CCCC=CCCCC(C)(NC(=O)[C@H](C)NC(=O)[C@H](CC(C)C)NC(=O)[C@H](Cc2c[nH]cn2)NC(=O)[C@H](CCCNC(=N)N)NC(=O)[C@H](C)NC(=O)[C@@H](NC(=O)[C@H](CC(N)=O)NC(=O)[C@H](CCCNC(=N)N)NC(=O)CC)[C@@H](C)CC)C(=O)N[C@@H](C(C)C)C(=O)NCC(=O)N[C@@H](CC(=O)O)C(=O)N1)C(=O)NC(C)(C)C(=O)N[C@@H](CCCNC(=N)N)C(=O)N[C@@H](CO)C(=O)N[C@H](C(N)=O)[C@@H](C)CC (stereo partly drawn) [SP-10] (Propionyl-RNIARHLA[ξαMeNle(6-ylidene)]VGD[ξαMeNle(6-ylidene)][Nle][Aib]RSI-NH2; staple 9-13) | 5.28 | 5.72 | 5.72 | 5.51 | 5.60 | 5.72 | 5.24 | 5.09 | 5.22 | 5.46 | 5.30 | 5.09
